Earlier results as cited in US20070015728A1, “Metered-dose and safety and compliance packaging for systemic anticancer therapy” (priority 2005, published 2007).

Columns and labels:
[1] = target: T1, OPRT (Homo sapiens, UniProt P11172); settings: neutral pH
T1 sequence (P11172 1-480): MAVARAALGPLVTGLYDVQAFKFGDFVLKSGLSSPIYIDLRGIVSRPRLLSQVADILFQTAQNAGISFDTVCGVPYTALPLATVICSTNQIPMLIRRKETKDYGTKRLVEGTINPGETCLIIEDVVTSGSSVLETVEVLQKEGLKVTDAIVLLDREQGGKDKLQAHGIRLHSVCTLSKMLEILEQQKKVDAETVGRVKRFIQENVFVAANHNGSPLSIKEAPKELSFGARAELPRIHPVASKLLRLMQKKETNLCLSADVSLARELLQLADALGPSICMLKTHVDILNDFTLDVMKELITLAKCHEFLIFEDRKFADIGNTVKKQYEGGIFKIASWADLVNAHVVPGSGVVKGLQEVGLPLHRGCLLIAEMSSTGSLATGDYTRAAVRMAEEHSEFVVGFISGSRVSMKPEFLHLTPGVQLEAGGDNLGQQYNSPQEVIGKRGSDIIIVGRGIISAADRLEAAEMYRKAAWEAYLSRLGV

[2] = test system: hand-foot syndrome (HFS); settings: treatment with capecitabine at the FDA-approved dose; XELODA product insert

SMILES	Km for OPRT, fold lower than 5-FU [1]	grade 3 incidence of HFS [2]	incidence of HFS irrespective of grade [2]
O=C(O)c1cc(=O)[nH]c(=O)[nH]1 [Orotate]	~50 fold	–	–
CCCCCOC(=O)Nc1nc(=O)n([C@@H]2O[C@H](C)[C@@H](O)[C@H]2O)cc1F [Xeloda, Capecitabine]	–	11-17%	54%-67%
